# Test results: article PMC5681660, “Reduced hepatitis B and D viral entry using clinically applied drugs as novel inhibitors of the bile acid transporter NTCP” (Scientific Reports, 2017)
# Where a name gives a salt, the structure may show the parent alone. Read-outs that look alike come from different tables or passages of the source.
# Assays:
# human NTCP [1] = target: T1, human NTCP (Homo sapiens, UniProt Q14973); assay: Screening fluorescent competitive Myrcludex B-FITC binding assay (96-well, 10 µM drug)
# T1 sequence (Q14973 1-349): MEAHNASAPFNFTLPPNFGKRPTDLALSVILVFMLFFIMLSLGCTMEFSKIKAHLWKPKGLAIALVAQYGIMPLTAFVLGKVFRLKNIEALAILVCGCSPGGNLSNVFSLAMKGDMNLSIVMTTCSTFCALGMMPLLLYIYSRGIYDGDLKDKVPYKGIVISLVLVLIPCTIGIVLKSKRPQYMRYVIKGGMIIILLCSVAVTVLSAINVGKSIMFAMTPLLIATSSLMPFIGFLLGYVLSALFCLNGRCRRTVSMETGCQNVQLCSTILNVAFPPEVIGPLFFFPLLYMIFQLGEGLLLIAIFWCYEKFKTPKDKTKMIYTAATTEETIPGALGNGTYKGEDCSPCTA
# human NTCP [2] = target: T1, human NTCP; assay: Screening taurocholate uptake assay (96-well, [14C]taurocholate, 10 µM drug)
# [3] = Prestwick library screen, Myrcludex B-FITC binding, 10 µM drug
# [4] = Prestwick library screen, taurocholate uptake, 10 µM drug
# [5] = ranking score beside the functional and binding assay B-scores of the screen
# [6] = Prestwick library screen, 10 µM drug, B-score of Myrcludex B-FITC binding
# [7] = Prestwick library screen, 10 µM drug, B-score of taurocholate uptake
# [8] = combined ranking from functional and binding assay B-scores
# [9] = screen, 10 µM drug, Myrcludex B-FITC binding
# [10] = combined ranking from functional and binding screening assays
# [11] = screen, 10 µM drug, taurocholate uptake
Structure (SMILES),B-score binding assay (human NTCP [1]; [9]),Ranking score (human NTCP [2]; [10]),B-score functional assay (human NTCP [2]; [11]),other results
CN(C)[C@@H]1C(O)=C(C(N)=O)C(=O)[C@@]2(O)C(O)=C3C(=O)c4c(O)ccc(Cl)c4[C@@H](O)[C@H]3C[C@@H]12 [Demeclocycline hydrochloride],–,–,–,B-score binding assay (human NTCP [1]; [3]): 0.096; B-score functional assay (human NTCP [2]; [4]): 0.083; Ranking score (human NTCP [2]; [5]): 738.496
CN1[C@@H]2CC[C@H]1C[C@@H](OC1c3ccccc3CCc3ccccc31)C2.O=C(O)CC(O)(CC(=O)O)C(=O)O [Deptropine citrate],–,–,–,B-score binding assay (human NTCP [1]; [6]): 0.633; B-score functional assay (human NTCP [2]; [7]): 0.947; Ranking score (human NTCP [2]; [8]): 1000.12
Cc1cc(N)c2ccccc2[n+]1CCCCCCCCCC[n+]1c(C)cc(N)c2ccccc21 [Dequalinium dichloride],–,–,–,B-score binding assay (human NTCP [1]; [3]): 3.994; B-score functional assay (human NTCP [2]; [4]): -0.527; Ranking score (human NTCP [2]; [5]): 680.714
CC1(C)O[C@@H]2C[C@H]3[C@@H]4CCC5=CC(=O)C=C[C@]5(C)[C@H]4[C@@H](O)C[C@]3(C)[C@]2(C(=O)CO)O1 [Desonide],–,–,–,B-score binding assay (human NTCP [1]; [3]): 0.993; B-score functional assay (human NTCP [2]; [4]): -0.358; Ranking score (human NTCP [2]; [5]): 665.567
CCN[C@@H](C)Cc1cccc(C(F)(F)F)c1 [Dexfenfluramine hydrochloride],-0.169,401.597,-0.697,–
CC(=O)Nc1c(I)c(NC(C)=O)c(I)c(C(=O)O)c1I.O.O [Diatrizoic acid dihydrate],–,–,–,B-score binding assay (human NTCP [1]; [3]): 1.833; B-score functional assay (human NTCP [2]; [4]): -0.248; Ranking score (human NTCP [2]; [5]): 739.319
CC1=NS(=O)(=O)c2cc(Cl)ccc2N1 [Diazoxide],-0.26,331.971,-1.121,–
NS(=O)(=O)c1cc(Cl)c(Cl)c(S(N)(=O)=O)c1 [Dichlorphenamide],–,–,–,B-score binding assay (human NTCP [1]; [6]): 2.215; B-score functional assay (human NTCP [2]; [7]): 0.709; Ranking score (human NTCP [2]; [8]): 1091.62
Cc1onc(-c2c(Cl)cccc2Cl)c1C(=O)N[C@@H]1C(=O)N2[C@@H]1SC(C)(C)[C@@H]2C(=O)[O-].O.[Na+] [Dicloxacillin sodium salt hydrate],–,–,–,B-score binding assay (human NTCP [1]; [6]): 0.373; B-score functional assay (human NTCP [2]; [7]): 0.63; Ranking score (human NTCP [2]; [8]): 908.983
O=c1oc2ccccc2c(O)c1Cc1c(O)c2ccccc2oc1=O [Dicumarol],1.31,403.485,-1.792,–
O=c1[nH]cnc2c1ncn2[C@H]1CC[C@@H](CO)O1 [Didanosine],–,–,–,B-score binding assay (human NTCP [1]; [6]): 1.663; B-score functional assay (human NTCP [2]; [7]): 0.086; Ranking score (human NTCP [2]; [8]): 927.069
C/C=C(/C(=C/C)c1ccc(O)cc1)c1ccc(O)cc1 [Dienestrol],-0.567,419.874,-0.196,–
CCN(CC)C(=O)N1CCN(C)CC1 [Diethylcarbamazine citrate],–,–,–,B-score binding assay (human NTCP [1]; [3]): -0.121; B-score functional assay (human NTCP [2]; [4]): 0.671; Ranking score (human NTCP [2]; [5]): 718.594
CC(=O)OCC(=O)[C@@]1(OC(C)=O)[C@@H](C)C[C@H]2[C@@H]3C[C@H](F)C4=CC(=O)C=C[C@]4(C)[C@@]3(F)[C@@H](O)C[C@@]21C [Diflorasone Diacetate],-1.118,327.658,-0.194,–
C[C@]12CC[C@H](O)C[C@H]1CC[C@@H]1[C@@H]2CC[C@]2(C)[C@@H](C3=CC(=O)OC3)CC[C@]12O [Digitoxigenin],1.274,348.633,-2.282,–
C[C@]12CC[C@H](O)C[C@H]1CC[C@@H]1[C@@H]2C[C@@H](O)[C@]2(C)[C@@H](C3=CC(=O)OC3)CC[C@]12O [Digoxigenin],-1.199,283.718,-0.468,–
C[C@H]1O[C@@H](O[C@H]2[C@@H](O)C[C@H](O[C@H]3[C@@H](O)C[C@H](O[C@H]4CC[C@@]5(C)[C@H](CC[C@@H]6[C@@H]5C[C@@H](O)[C@]5(C)[C@@H](C7=CC(=O)OC7)CC[C@]65O)C4)O[C@@H]3C)O[C@@H]2C)C[C@H](O)[C@@H]1O [Digoxin],2.8,426.002,-1.822,–
CN1C[C@H](C(=O)N[C@]2(C)O[C@@]3(O)[C@@H]4CCCN4C(=O)[C@H](Cc4ccccc4)N3C2=O)C[C@@H]2c3cccc4[nH]cc(c34)C[C@H]21.CN1C[C@H](C(=O)N[C@]2(C)O[C@@]3(O)[C@@H]4CCCN4C(=O)[C@H](Cc4ccccc4)N3C2=O)C[C@@H]2c3cccc4[nH]cc(c34)C[C@H]21.O=C(O)C(O)C(O)C(=O)O [Dihydroergotamine tartrate],-1.57,379.284,0.679,–
COc1ccc([C@@H]2Sc3ccccc3N(CCN(C)C)C(=O)[C@@H]2OC(C)=O)cc1 [Diltiazem hydrochloride],-0.608,351.949,-0.552,–
CN(C)CCCSC(=N)N.Cl.Cl [Dimaprit dihydrochloride],–,–,–,B-score binding assay (human NTCP [1]; [6]): 1.724; B-score functional assay (human NTCP [2]; [7]): 0.472; Ranking score (human NTCP [2]; [8]): 1022.56

Structure (SMILES),B-score binding assay (human NTCP [1]; [9]),Ranking score (human NTCP [2]; [10]),B-score functional assay (human NTCP [2]; [11]),other results
CC1(C)OC(=O)NC1=O [Dimethadione],-1.829,328.253,0.349,–
COc1ccc(C(=O)c2ccccc2O)c(O)c1 [Dioxybenzone],-0.95,401.91,0.002,–
O=C(Nc1ccccc1)OCC(CN1CCCCC1)OC(=O)Nc1ccccc1 (stereo not drawn) [Diperodon hydrochloride],–,–,–,B-score binding assay (human NTCP [1]; [3]): 0.002; B-score functional assay (human NTCP [2]; [4]): 0.512; Ranking score (human NTCP [2]; [5]): 772.884
OC(CCCN1CCCCC1)(c1ccccc1)c1ccccc1 [Diphenidol hydrochloride],0.054,367.214,-1.4,–
Cn1c(=O)c2c(ncn2CC(O)CO)n(C)c1=O (stereo not drawn) [Diprophylline],–,–,–,B-score binding assay (human NTCP [1]; [3]): 1.219; B-score functional assay (human NTCP [2]; [4]): -0.019; Ranking score (human NTCP [2]; [5]): 816.025
OCCN(CCO)c1nc(N2CCCCC2)c2nc(N(CCO)CCO)nc(N3CCCCC3)c2n1 [Dipyridamole],-0.011,317.643,-1.651,–
Cc1c(N(C)CS(=O)(=O)[O-])c(=O)n(-c2ccccc2)n1C.[Na+] [Dipyrone],-0.963,355.307,-0.152,–
CC[C@H]1OC(=O)[C@H](C)[C@@H](O[C@H]2C[C@@](C)(OC)[C@@H](O)[C@H](C)O2)[C@H](C)[C@@H](O[C@@H]2O[C@H](C)C[C@H](N(C)C)[C@H]2O)[C@](C)(O)C[C@@H](C)[C@@H]2N[C@@H](COCCOC)O[C@H]([C@H]2C)[C@]1(C)O [Dirithromycin],–,–,–,B-score binding assay (human NTCP [1]; [6]): 0.123; B-score functional assay (human NTCP [2]; [7]): 1.532; Ranking score (human NTCP [2]; [8]): 934.441
CC(C)N(CCC(C(N)=O)(c1ccccc1)c1ccccn1)C(C)C (stereo not drawn) [Disopyramide],–,–,–,B-score binding assay (human NTCP [1]; [6]): 2.245; B-score functional assay (human NTCP [2]; [7]): 0.051; Ranking score (human NTCP [2]; [8]): 925.407
CC(CCc1ccc(O)cc1)NCCc1ccc(O)c(O)c1 (stereo not drawn) [Dobutamine hydrochloride],–,–,–,B-score binding assay (human NTCP [1]; [3]): 1.051; B-score functional assay (human NTCP [2]; [4]): -0.038; Ranking score (human NTCP [2]; [5]): 789.916
NCCc1ccc(O)c(O)c1 [Dopamine hydrochloride],–,–,–,B-score binding assay (human NTCP [1]; [3]): 1.493; B-score functional assay (human NTCP [2]; [4]): -0.07; Ranking score (human NTCP [2]; [5]): 802.566
CCN[C@H]1C[C@H](C)S(=O)(=O)c2sc(S(N)(=O)=O)cc21 [Dorzolamide hydrochloride],-0.624,369.324,-0.44,–
CN(C)CC/C=C1\c2ccccc2CSc2ccccc21 [Dosulepin hydrochloride],0.311,296.985,-2.363,–
CCN1CC(CCN2CCOCC2)C(c2ccccc2)(c2ccccc2)C1=O.Cl (stereo not drawn) [Doxapram hydrochloride],-1.194,446.058,0.629,–
COc1cc2nc(N3CCN(C(=O)C4COc5ccccc5O4)CC3)nc(N)c2cc1OC (stereo not drawn) [Doxazosin mesylate],–,–,–,B-score binding assay (human NTCP [1]): 0.211; B-score functional assay (human NTCP [2]): -0.292; Ranking score (human NTCP [2]): 599.787
CN(C)CCC=C1c2ccccc2COc2ccccc21 [Doxepin hydrochloride],0.002,385.759,-1.158,–
Cn1c(=O)c2c(ncn2CC2OCCO2)n(C)c1=O [Doxofylline],–,–,–,B-score binding assay (human NTCP [1]; [6]): 0.388; B-score functional assay (human NTCP [2]; [7]): 3.316; Ranking score (human NTCP [2]; [8]): 1049.35
COc1cccc2c1C(=O)c1c(O)c3c(c(O)c1C2=O)C[C@@](O)(C(=O)CO)C[C@@H]3O[C@H]1C[C@H](N)[C@H](O)[C@H](C)O1 [Doxorubicin hydrochloride],–,–,–,B-score binding assay (human NTCP [1]): -0.177; B-score functional assay (human NTCP [2]): 0.02; Ranking score (human NTCP [2]): 577.781
C[C@H]1c2cccc(O)c2C(=O)C2=C(O)[C@]3(O)C(=O)C(C(N)=O)=C(O)[C@@H](N(C)C)[C@@H]3[C@@H](O)[C@@H]21 [Doxycycline hydrochloride],-1.041,380.385,-0.015,–
CN(C)CCOC(C)(c1ccccc1)c1ccccn1 (stereo not drawn) [Doxylamine succinate],-1.318,393.435,0.231,–
